Reference: patent publication EP4692114A1, “CALCITONIN ANALOGUE, AND DERIVATIVE THEREOF AND USE THEREOF” (Hangzhou Sciwind Biosciences Co., Ltd., priority 2023, dated 2024)
*1 amine or outer side, *2 acyl side, *3 side chain or, on linkers, in order; H or OH if unused. Where a SMILES comes first, the peptide text is derived from it. [ ]: non-standard residue; d: D form. The star is where a group is joined. C20 diacid = O=C(O)CCCCCCCCCCCCCCCCCCC(=O)*; γGlu = O=C(O)[C@H](CCC(=O)[*:2])N[*:1]; βAsp = O=C(O)[C@H](CC(=O)[*:2])N[*:1]; AEEA = NCCOCCOCC(=O)O; Inp = O=C(O)C1CCNCC1

Molecular target: T1, human amylin receptors (Homo sapiens, UniProt O60896+P30988)
T1 sequence (P30988 25-474): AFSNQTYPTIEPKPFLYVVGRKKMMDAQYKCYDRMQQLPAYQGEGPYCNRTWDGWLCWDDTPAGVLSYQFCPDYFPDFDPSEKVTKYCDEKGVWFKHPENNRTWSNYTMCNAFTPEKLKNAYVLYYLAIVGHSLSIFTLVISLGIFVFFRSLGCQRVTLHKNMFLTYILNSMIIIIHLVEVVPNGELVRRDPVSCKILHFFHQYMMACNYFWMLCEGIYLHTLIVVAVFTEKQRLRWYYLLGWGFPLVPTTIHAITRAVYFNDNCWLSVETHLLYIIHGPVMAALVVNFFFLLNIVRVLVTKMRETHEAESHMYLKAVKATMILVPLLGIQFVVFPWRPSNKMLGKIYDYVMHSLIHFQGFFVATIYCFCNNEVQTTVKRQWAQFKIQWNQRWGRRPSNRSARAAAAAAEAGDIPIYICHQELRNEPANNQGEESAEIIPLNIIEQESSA
T1 sequence (O60896 24-148 partner): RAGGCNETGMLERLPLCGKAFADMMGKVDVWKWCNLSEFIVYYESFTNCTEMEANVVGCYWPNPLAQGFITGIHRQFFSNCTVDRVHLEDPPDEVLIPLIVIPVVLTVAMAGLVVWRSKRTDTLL
Test: Luciferase assay of amylin (amylin receptor/CRE-luc cell line);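 note: agonist potency from luminescence of cAMP response element-driven luciferase, EC50 derived from a standard curve of signal versus compound concentration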
Type: cell-based
Details: stably transfected amylin receptor/CRE-luc CHO cells (CHO-K1/Gal5/AMY3), 24 hours incubation, luciferase readout
Text: The objective of this assay is to test the activity or potency of calcitonin analogues or derivatives on human amylin receptors in vitro using a luciferase assay.
Using the standard protocol, CHO-K1/Gal5/AMY3 cells (purchased from GenScript, with the calcitonin receptor and the receptor activity modifying peptide (RAMP) constructed already) were transfected with a plasmid containing a luciferase expression cassette driven by multiple copies of cAMP response elements (CREs). The cells were cultured in an F12 medium containing 200 ug/mL Zeocin, 2 ug/mL puromycin, 100 ug/mL hygromycin, and 400 ug/mL G418 to afford a stably transfected amylin receptor/CRE-luc cell line.
To each well of a white 96-well plate was added 50 µL of the tested sample solution at a respective concentration.
The stably transfected amylin receptor/CRE-luc CHO cells were resuspended in the growth medium at a certain density, and 50 µL of the cell suspension was added at a density of about 20000 cells per well to the white 96-well plate containing the tested sample solution. After incubation of 24 hours at 37°C and 5% CO2, 100 µL of a Luciferase substrate was added to each well, incubated for 3 minutes, and finally was tested for luminescence on SpectraMax L (Molecular Devices) with the software SoftMax Pro 7.0.3 GxP. A standard curve was plotted using the fluorescent intensities for calculation of EC50.

| SMILES | EC50 |
| --- | --- |
| CC(C)C[C@H](NC(=O)[C@H](CCCNC(=N)N)NC(=O)CNC(=O)[C@H](CC(C)C)NC(=O)[C@@H](NC(=O)[C@H](C)NC(=O)[C@@H](NC(=O)[C@H](CO)NC(=O)[C@H](CC(C)C)NC(=O)[C@H](CCC(N)=O)NC(=O)[C@H](CO)NC(=O)[C@H](C)NC(=O)[C@H](CC(=O)O)NC(=O)CCCCCCCCCCCCCCCCCCC(=O)O)[C@@H](C)O)C(C)C)C(=O)N[C@@H](CO)C(=O)N[C@@H](CCC(=O)O)C(=O)N[C@@H](CCC(=O)O)C(=O)N[C@@H](CC(C)C)C(=O)N[C@@H](Cc1c[nH]cn1)C(=O)N[C@@H](CCCNC(=N)N)C(=O)N[C@@H](CC(C)C)C(=O)N[C@@H](CCC(N)=O)C(=O)N[C@@H](CC(=O)O)C(=O)N[C@@H](Cc1ccc(O)cc1)C(=O)N1CCC[C@H]1C(=O)N[C@@H](CCCNC(=N)N)C(=O)N[C@H](C(=O)N[C@@H](CC(=O)O)C(=O)N[C@H](C(=O)NCC(=O)N[C@@H](CO)C(=O)NCC(=O)N[C@@H](CO)C(=O)N1CCC[C@H]1C(N)=O)C(C)C)[C@@H](C)O [M54] ({C20 diacid}-DASQLSTAVLGRLSEELHRLQDYPRTDVGSGSP-NH2) | 0.017 nM |
| CC(C)C[C@H](NC(=O)[C@H](CCCNC(=N)N)NC(=O)CNC(=O)[C@H](CC(C)C)NC(=O)[C@@H](NC(=O)[C@H](C)NC(=O)[C@@H](NC(=O)[C@H](CO)NC(=O)[C@H](CC(C)C)NC(=O)[C@H](CCC(N)=O)NC(=O)[C@H](CO)NC(=O)[C@H](C)NC(=O)COCCOCCNC(=O)COCCOCCNC(=O)[C@H](CCC(=O)O)NC(=O)CCCCCCCCCCCCCCCCCCC(=O)O)[C@@H](C)O)C(C)C)C(=O)N[C@@H](CO)C(=O)N[C@@H](CCC(=O)O)C(=O)N[C@@H](CCC(=O)O)C(=O)N[C@@H](CC(C)C)C(=O)N[C@@H](Cc1c[nH]cn1)C(=O)N[C@@H](CCCNC(=N)N)C(=O)N[C@@H](CC(C)C)C(=O)N[C@@H](CCC(N)=O)C(=O)N[C@@H](CC(=O)O)C(=O)N[C@@H](Cc1ccc(O)cc1)C(=O)N1CCC[C@H]1C(=O)N[C@@H](CCCNC(=N)N)C(=O)N[C@H](C(=O)N[C@@H](CC(=O)O)C(=O)N[C@H](C(=O)NCC(=O)N[C@@H](CO)C(=O)NCC(=O)N[C@@H](CO)C(=O)N1CCC[C@H]1C(N)=O)C(C)C)[C@@H](C)O [M58] ({C20 diacid}-E[AEEA][AEEA]ASQLSTAVLGRLSEELHRLQDYPRTDVGSGSP-NH2) | 0.017 nM |
| CC(C)C[C@H](NC(=O)[C@H](CCCNC(=N)N)NC(=O)CNC(=O)[C@H](CC(C)C)NC(=O)[C@@H](NC(=O)[C@H](C)NC(=O)[C@@H](NC(=O)[C@H](CO)NC(=O)[C@H](CC(C)C)NC(=O)[C@H](CCC(N)=O)NC(=O)[C@H](CO)NC(=O)[C@H](C)NC(=O)C[C@H](NC(=O)CCCCCCCCCCCCCCCCCCC(=O)O)C(=O)O)[C@@H](C)O)C(C)C)C(=O)N[C@@H](CO)C(=O)N[C@@H](CCC(=O)O)C(=O)N[C@@H](CCC(=O)O)C(=O)N[C@@H](CC(C)C)C(=O)N[C@@H](Cc1c[nH]cn1)C(=O)N[C@@H](CCCNC(=N)N)C(=O)N[C@@H](CC(C)C)C(=O)N[C@@H](CCC(N)=O)C(=O)N[C@@H](CC(=O)O)C(=O)N[C@@H](Cc1ccc(O)cc1)C(=O)N1CCC[C@H]1C(=O)N[C@@H](CCCNC(=N)N)C(=O)N[C@H](C(=O)N[C@@H](CC(=O)O)C(=O)N[C@H](C(=O)NCC(=O)N[C@@H](CO)C(=O)NCC(=O)N[C@@H](CO)C(=O)N1CCC[C@H]1C(N)=O)C(C)C)[C@@H](C)O [M53] ({C20 diacid-βAsp}-ASQLSTAVLGRLSEELHRLQDYPRTDVGSGSP-NH2) | 0.017 nM |

The remaining compounds from weak to strong by EC50, led by results:

| EC50 | SMILES |
| --- | --- |
| 0.017 nM | CC(C)C[C@H](NC(=O)[C@H](CCCNC(=N)N)NC(=O)CNC(=O)[C@H](CC(C)C)NC(=O)[C@@H](NC(=O)[C@H](C)NC(=O)[C@@H](NC(=O)[C@H](CO)NC(=O)[C@H](CC(C)C)NC(=O)[C@H](CCC(N)=O)NC(=O)[C@H](CO)NC(=O)[C@H](C)NC(=O)[C@H](CCC(=O)O)NC(=O)CCCCCCCCCCCCCCCCCCC(=O)O)[C@@H](C)O)C(C)C)C(=O)N[C@@H](CO)C(=O)N[C@@H](CCC(=O)O)C(=O)N[C@@H](CCC(=O)O)C(=O)N[C@@H](CC(C)C)C(=O)N[C@@H](Cc1c[nH]cn1)C(=O)N[C@@H](CCCNC(=N)N)C(=O)N[C@@H](CC(C)C)C(=O)N[C@@H](CCC(N)=O)C(=O)N[C@@H](CC(=O)O)C(=O)N[C@@H](Cc1ccc(O)cc1)C(=O)N1CCC[C@H]1C(=O)N[C@@H](CCCNC(=N)N)C(=O)N[C@H](C(=O)N[C@@H](CC(=O)O)C(=O)N[C@H](C(=O)NCC(=O)N[C@@H](CO)C(=O)NCC(=O)N[C@@H](CO)C(=O)N1CCC[C@H]1C(N)=O)C(C)C)[C@@H](C)O [M52] ({C20 diacid}-EASQLSTAVLGRLSEELHRLQDYPRTDVGSGSP-NH2) |
| 0.016 nM | CC(C)C[C@H](NC(=O)[C@H](CCCNC(=N)N)NC(=O)CNC(=O)[C@H](CC(C)C)NC(=O)[C@@H](NC(=O)[C@H](C)NC(=O)[C@@H](NC(=O)[C@H](CO)NC(=O)[C@H](CC(C)C)NC(=O)[C@H](CCC(N)=O)NC(=O)[C@H](CO)NC(=O)[C@H](C)NC(=O)COCCOCCNC(=O)COCCOCCNC(=O)C1CCN(C(=O)CCCCCCCCCCCCCCCCCCC(=O)O)CC1)[C@@H](C)O)C(C)C)C(=O)N[C@@H](CO)C(=O)N[C@@H](CCC(=O)O)C(=O)N[C@@H](CCC(=O)O)C(=O)N[C@@H](CC(C)C)C(=O)N[C@@H](Cc1c[nH]cn1)C(=O)N[C@@H](CCCNC(=N)N)C(=O)N[C@@H](CC(C)C)C(=O)N[C@@H](CCC(N)=O)C(=O)N[C@@H](CC(=O)O)C(=O)N[C@@H](Cc1ccc(O)cc1)C(=O)N1CCC[C@H]1C(=O)N[C@@H](CCCNC(=N)N)C(=O)N[C@H](C(=O)N[C@@H](CC(=O)O)C(=O)N[C@H](C(=O)NCC(=O)N[C@@H](CO)C(=O)NCC(=O)N[C@@H](CO)C(=O)N1CCC[C@H]1C(N)=O)C(C)C)[C@@H](C)O [M62] ({C20 diacid-Inp-AEEA-AEEA}-ASQLSTAVLGRLSEELHRLQDYPRTDVGSGSP-NH2) |
| 0.016 nM | CC(C)C[C@H](NC(=O)CC[C@H](NC(=O)CCCCCCCCCCCCCCCCCCC(=O)O)C(=O)O)C(=O)N[C@@H](CO)C(=O)N[C@@H](CCC(N)=O)C(=O)N[C@@H](CC(C)C)C(=O)N[C@@H](CO)C(=O)N[C@H](C(=O)N[C@@H](CC(C)C)C(=O)N[C@H](C(=O)N[C@@H](CC(C)C)C(=O)NCC(=O)N[C@@H](CCCNC(=N)N)C(=O)N[C@@H](CC(C)C)C(=O)N[C@@H](CO)C(=O)N[C@@H](CCC(N)=O)C(=O)N[C@@H](CCC(=O)O)C(=O)N[C@@H](CC(C)C)C(=O)N[C@@H](Cc1c[nH]cn1)C(=O)N[C@@H](CCCNC(=N)N)C(=O)N[C@@H](CC(C)C)C(=O)N[C@@H](CCC(N)=O)C(=O)N[C@@H](CC(=O)O)C(=O)N[C@@H](Cc1ccc(O)cc1)C(=O)N1CCC[C@H]1C(=O)N[C@@H](CCCNC(=N)N)C(=O)N[C@H](C(=O)N[C@@H](CC(=O)O)C(=O)N[C@H](C(=O)NCC(=O)N[C@@H](CO)C(=O)NCC(=O)N[C@@H](CO)C(=O)N1CCC[C@H]1C(N)=O)C(C)C)[C@@H](C)O)C(C)C)[C@@H](C)O [M25] ({C20 diacid-γGlu}-LSQLSTLVLGRLSQELHRLQDYPRTDVGSGSP-NH2) |
